Measurements reported in ChEMBL document CHEMBL3351924, “Detailed analysis and follow-up studies of a high-throughput screening for indoleamine 2,3-dioxygenase 1 (IDO1) inhibitors” (Eur J Med Chem, 2014).
Values after ≈ are worked out from the molar mass of the structure shown.

Legend:
[1] = Cytotoxicity against mouse P815B cells after 24 hrs by MTS/PMS assay; settings: P815B cells
[2] = biological target: Tryptophan 2,3-dioxygenase (Mus musculus, UniProt P48776); assay: Inhibition of mouse TDO expressed in mouse P815B cells using L-tryptophan substrate incubated for 24 hrs by HPLC based cellular assay; type: cell-based
[3] = biological target: T1, Indoleamine 2,3-dioxygenase 1 (Homo sapiens, UniProt P14902); assay: Inhibition of IDO1 (unknown origin) using L-tryptophan substrate incubated for 60 mins in presence of 5 mM GSH by HPLC
[4] = Solubility of the compound in pH 6.5 phosphate buffer containing 5% DMSO; settings: phosphate buffer containing 5% DMSO
[5] = biological target: T1, Indoleamine 2,3-dioxygenase 1; assay: Inhibition of IDO1 (unknown origin) using L-tryptophan substrate incubated for 60 mins by HPLC; settings: read-out: IC50
[6] = biological target: Indoleamine 2,3-dioxygenase 1 (Mus musculus, UniProt P28776); assay: Inhibition of mouse IDO1 expressed in mouse P815B cells using L-tryptophan substrate incubated for 18 hrs by HPLC based cellular assay; type: cell-based
[7] = biological target: T1, Indoleamine 2,3-dioxygenase 1; assay: Inhibition of IDO1 (unknown origin) using L-tryptophan substrate incubated for 60 mins in presence of 0.01% Triton-X by HPLC; settings: read-out: IC50

T1 sequence (P14902 whole entry): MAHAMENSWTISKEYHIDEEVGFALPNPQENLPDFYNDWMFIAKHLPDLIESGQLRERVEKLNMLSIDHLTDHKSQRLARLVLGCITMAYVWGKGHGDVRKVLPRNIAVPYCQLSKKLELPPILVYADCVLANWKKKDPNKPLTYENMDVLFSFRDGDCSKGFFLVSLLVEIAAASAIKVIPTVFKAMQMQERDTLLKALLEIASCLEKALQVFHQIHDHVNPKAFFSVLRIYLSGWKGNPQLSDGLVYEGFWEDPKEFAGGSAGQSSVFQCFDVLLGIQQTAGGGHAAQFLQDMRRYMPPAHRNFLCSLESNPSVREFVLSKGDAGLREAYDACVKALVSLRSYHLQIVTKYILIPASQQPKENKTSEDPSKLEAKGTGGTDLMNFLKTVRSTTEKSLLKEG
Tryptophan 2,3-dioxygenase, sequence (P48776 whole entry): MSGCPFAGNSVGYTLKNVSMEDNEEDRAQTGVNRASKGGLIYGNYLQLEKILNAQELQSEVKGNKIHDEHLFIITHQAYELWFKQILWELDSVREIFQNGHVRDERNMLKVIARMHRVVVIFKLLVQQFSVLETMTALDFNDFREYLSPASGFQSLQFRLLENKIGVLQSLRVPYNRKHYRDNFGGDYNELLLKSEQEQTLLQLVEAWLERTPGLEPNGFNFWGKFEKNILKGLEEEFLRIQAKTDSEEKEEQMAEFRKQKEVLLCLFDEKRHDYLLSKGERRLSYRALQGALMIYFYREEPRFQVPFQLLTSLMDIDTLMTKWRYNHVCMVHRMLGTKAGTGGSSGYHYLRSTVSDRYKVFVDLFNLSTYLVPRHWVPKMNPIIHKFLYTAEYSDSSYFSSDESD
Indoleamine 2,3-dioxygenase 1 (Mus musculus, UniProt P28776), sequence (P28776 whole entry): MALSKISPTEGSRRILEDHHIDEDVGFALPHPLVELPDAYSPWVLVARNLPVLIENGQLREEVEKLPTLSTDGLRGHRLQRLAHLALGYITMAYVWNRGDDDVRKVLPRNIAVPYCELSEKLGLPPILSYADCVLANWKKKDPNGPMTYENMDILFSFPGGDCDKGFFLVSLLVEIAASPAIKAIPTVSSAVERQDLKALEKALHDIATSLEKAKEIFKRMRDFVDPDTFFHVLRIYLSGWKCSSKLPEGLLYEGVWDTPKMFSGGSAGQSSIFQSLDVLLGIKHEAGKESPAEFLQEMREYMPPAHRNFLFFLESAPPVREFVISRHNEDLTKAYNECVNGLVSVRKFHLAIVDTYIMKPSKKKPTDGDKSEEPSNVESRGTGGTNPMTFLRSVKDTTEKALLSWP

Structure (SMILES) | CC50 at 24 h [1] | IC50 ([2]; read-out: IC50) | IC50 [3] | solubility [4] | IC50 [5] | IC50 ([6]; read-out: IC50) | IC50 [7] | IC50 ([2]; p815b) | IC50 ([6]; p815b)
Cc1ccc(-n2nnnc2C/C=N/Nc2ccc(Cl)cc2)cc1 | 10 µM | 4.2 µM | 31 µM | 12.5 µM (≈ 4.08 µg/mL) | 54 µM | 0.34 µM | 53 µM |  | 
N#CC(C(=O)Nc1cccc(C(F)(F)F)c1)C(=S)Nc1ccccc1Cl (centres undefined) | > 25 µM |  | 71 µM | 1000 µM (≈ 398 µg/mL) | 7 µM |  | 6.3 µM | Not Active | Not Active
